Drawing on PubChem BioAssay (NCI), this text covers TGI for 24 compounds.

Each structure is given as a SMILES string.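 How tested: cells in 96-well plates exposed to compound for 48 hours at five concentrations. TGI denotes the concentration required for complete inhibition of growth.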

Experiment in all cases: NCI-60 cell line screen, 48 h
In assay [1] the test system is SF-268 CNS.
The test system of assay [2] is 786-0 renal.
Assay [3] has as its system NCI-H226 lung.
Assay [4] concerns NCI-H460 lung.
Assay [5] concerns SNB-19 CNS.
Assay [6] concerns HOP-92 NSCLC.
The subject of assay [7] is HT29 colon.
Assay [8] has as its system COLO 205 colon.
Assay [9] relates to UACC-257 melanoma.
Assay [10] concerns OVCAR-5 ovarian.
Assay [11] deals with SK-MEL-28 melanoma.

With `O=C(c1ccco1)N1CCN(C(=O)c2ccco2)C1=S`, the TGI in assay [1] is 21.8 µM; in assay [2] it was 12.8 µM; in assay [3] it was 51.5 µM; in assay [4] it was 30 µM; in assay [5] it was greater than 79.5 µM; in assay [6], 23.6 µM. For the same compound, the TGI turned out to be 24.2 µM in assay [7]; 21.2 µM in assay [8]; 23.3 µM in [9]; 39.8 µM in assay [10]; 22.8 µM in [11].
In the case of `Cc1[nH]n(-c2nc(O)c(C)c(=O)[nH]2)c(=O)c1CCO`, the TGI in [1], in assay [2], in [3], in assay [4], in assay [5] and in assay [6] was greater than 100 µM in each case. In addition, the TGI in assay [7], in [8], in assay [9], in assay [10] and in assay [11] was greater than 100 µM each time.
As for `CCCCCC(/C=N/NC(N)=S)C(O)(C(F)(F)F)C(F)(F)F` (centres undefined), the TGI in assay [1], in [2], in [3], in [4], in assay [5] and in [6] was greater than 10 µM throughout. Moreover, the TGI in assay [7], in assay [8], in [9], in assay [10] and in [11] was greater than 10 µM throughout.
Turning to `C/C=C/[C@@H]1O[C@H](CC#C[Si](C)(C)C)[C@@]2(C=O)C(C)=CC[C@H](C(C)C)[C@@H]12`, the TGI in [1] turned out to be 52.3 µM; in assay [2], 31.3 µM; in [3] it was 41.7 µM; in assay [4], 39.8 µM; in assay [5], 62.3 µM; in [6], 41.4 µM. Also, the TGI in [7] is 46.2 µM; in [8], 66.1 µM; in assay [9], 32.5 µM; in assay [10] it was 40.2 µM; in [11], 47.8 µM.
On to `Cc1ccc(NC(=S)NNC(=O)c2cc(-c3ccccc3)nc3ccccc23)cc1C`, for which the TGI in assay [1] is greater than 100 µM; in assay [2] it was 33.7 µM; in assay [3] it was 90.1 µM; in assay [4], 38.7 µM; in [5], 93.2 µM; in [6], 48.8 µM. The TGI in assay [7] was found to be 49.2 µM; in assay [8], 34.2 µM; in assay [9], 60.1 µM; in assay [10] it was 76.9 µM; in assay [11] it was 78.8 µM.
For the compound `COc1ccccc1/C=C1/Sc2scc(CC(=O)Nc3ccccc3)[n+]2C1=O`, the TGI is greater than 100 µM in assay [1]; greater than 100 µM in [2]; 69.7 µM in assay [3]; greater than 100 µM in [4]; greater than 100 µM in assay [5]; 52.3 µM in assay [6]. Besides, the TGI in assay [7] is greater than 100 µM; in assay [8], 65.4 µM; in assay [9], 80.4 µM; in [10], greater than 100 µM; in assay [11], greater than 100 µM.
As for `O=C(O)c1cc2c(cc1S(=O)(=O)O)C1C(C3C2C2(Cl)C(Cl)=C(Cl)C3(Cl)C2(Cl)Cl)C2(Cl)C(Cl)=C(Cl)C1(Cl)C2(Cl)Cl` (centres undefined), the TGI is greater than 100 µM in assay [1]; greater than 100 µM in assay [2]; 49 µM in assay [3]; greater than 100 µM in assay [4]; greater than 100 µM in assay [5]; 85.2 µM in assay [6]. Besides, the TGI in assay [7] was 48 µM; in [8], greater than 100 µM; in assay [9] it was greater than 100 µM; in assay [10] it was 70 µM; in assay [11], greater than 100 µM.
Consider `Cc1ccc(NNc2cc(=O)[nH]c(=O)[nH]2)cc1Cl`, for which the TGI in assay [1] was greater than 100 µM; in assay [2] it was 28 µM; in assay [3], greater than 100 µM; in [4] it was greater than 100 µM; in assay [5], greater than 100 µM; in assay [6] it was 27.9 µM. In addition, the TGI in assay [7] is 28.7 µM; in [8], 30.6 µM; in assay [9] it was 32 µM; in assay [10] it was greater than 100 µM; in [11], 31.7 µM.
In the case of `Cn1c2c(c3ccccc31)CC(=O)N1CCCCC1C21OCCO1` (centres undefined), the TGI in [1], in assay [2], in assay [3], in [4], in [5] and in assay [6] was greater than 100 µM each time. Also, the TGI in [7], in assay [8], in assay [9], in assay [10] and in assay [11] was greater than 100 µM each time.
Take `COc1ccc2c(-c3ccc(O)cc3)c(Oc3ccccc3)c(=O)oc2c1`: the TGI was greater than 100 µM in assay [1]; greater than 52.1 µM in [2]; greater than 87.2 µM in [3]; greater than 100 µM in assay [4]; greater than 53.7 µM in assay [5]; greater than 87.8 µM in assay [6]. Moreover, the TGI in assay [7] is 98.2 µM; in assay [8], greater than 100 µM; in assay [9], greater than 100 µM; in [10], greater than 100 µM; in [11], greater than 100 µM.
Consider `C=C1CC(CNc2cc(Cl)nc(N)n2)C1`, for which the TGI in assay [1], in assay [2], in assay [3], in [4], in assay [5] and in assay [6] was greater than 100 µM throughout. For the same compound, the TGI in assay [7], in assay [8], in assay [9], in assay [10] and in assay [11] was greater than 100 µM throughout.
Take `COc1ncc(C#CC(=O)c2ccccc2OC)c(OC)n1`: the TGI in [1] was 12.2 µM; in assay [2], 3.69 µM; in assay [3] it was 3.35 µM; in assay [4] it was 15.7 µM; in assay [5] it was 29.3 µM; in assay [6], 4.47 µM. The TGI was determined as 3.84 µM in assay [7]; 4.12 µM in assay [8]; 8.79 µM in assay [9]; 8.23 µM in assay [10]; 8.06 µM in [11].
With `O=C1NC(N/N=C/C(O)C(O)C(O)C(O)CO)=N/C1=C\c1cccs1` (centres undefined), the TGI in assay [1], in assay [2], in assay [3], in assay [4], in [5] and in assay [6] was greater than 100 µM in each case. For the same compound, the TGI in [7], in [8], in [9], in [10] and in assay [11] was greater than 100 µM each time.
Regarding `O/N=C1\CC2(N3CCOCC3)CCC1(Cc1ccccc1)CC2`, the TGI is 76.6 µM in [1]; 41.9 µM in [2]; 83.1 µM in assay [3]; greater than 100 µM in assay [4]; 63.5 µM in assay [5]; 89.2 µM in assay [6]. The TGI in [7], in [8], in [9], in assay [10] and in assay [11] was greater than 100 µM in each case.
On to `C=CC1(CBr)CCC(C(C)(C)Br)O1` (centres undefined), for which the TGI in [1] turned out to be 38.2 µM; in assay [2], 6.56 µM; in [3] it was 46.7 µM; in assay [4] it was 27.7 µM; in assay [5], 30.1 µM; in assay [6] it was 28.6 µM. Moreover, the TGI in assay [7] came out at 14.4 µM; in [8], 20.6 µM; in assay [9], 28.9 µM; in assay [10], 27.9 µM; in assay [11], 23.9 µM.
With `CC(C)(N=NC(C)(C)C1=NCCN1)C1=NCCN1`, the TGI in assay [1], in assay [2], in assay [3], in assay [4], in assay [5] and in [6] was greater than 100 µM each time. The TGI in [7], in [8], in assay [9], in [10] and in assay [11] was greater than 100 µM each time.
As for `CCOC(=O)NNC1(SC)NC(=O)c2c(cc(Cl)oc2=O)O1` (centres undefined), the TGI in [1] is 10.7 µM; in [2], 4.84 µM; in assay [3], 43.8 µM; in assay [4], 23.7 µM; in assay [5] it was 25.4 µM; in [6], 4.63 µM. The TGI in assay [7] was determined as 5.26 µM; in [8], 25.9 µM; in assay [9] it was 30.4 µM; in [10] it was 25.2 µM; in assay [11], 10.5 µM.
In the case of `CNC=O`, the TGI in [1], in assay [2], in assay [3], in assay [4], in [5] and in assay [6] was greater than 10000 µM in each case. Besides, the TGI in [7], in assay [8], in assay [9], in [10] and in assay [11] was greater than 10000 µM throughout.
On to `CC(=O)NC1CCC(NC(=O)OC(C)(C)C)C(NC(=O)OC(C)(C)C)C1` (centres undefined), for which the TGI in assay [1], in assay [2], in assay [3], in assay [4], in assay [5] and in assay [6] was greater than 100 µM throughout. Also, the TGI in assay [7], in assay [8], in assay [9], in assay [10] and in assay [11] was greater than 100 µM throughout.
As to `Cc1ccc(S(=O)(=O)OCC23CCC(C4CC42)C2CC23)cc1` (centres undefined), the TGI in [1], in assay [2], in assay [3], in [4], in [5] and in assay [6] was greater than 100 µM throughout. Also, the TGI is greater than 100 µM in assay [7]; greater than 100 µM in assay [8]; 89.1 µM in assay [9]; greater than 100 µM in assay [10]; greater than 100 µM in assay [11].
Consider `N#C[C@](CO)(NC(=O)OCc1ccccc1)C(F)F`, for which the TGI in [1], in assay [2], in [3], in assay [4], in assay [5] and in [6] was greater than 100 µM in each case. Also, the TGI in assay [7], in assay [8], in assay [9], in assay [10] and in [11] was greater than 100 µM in each case.
For `Cc1ccnc2c1c(=O)c1ccccc1n2C`, the TGI in assay [1] is greater than 100 µM; in [2], greater than 100 µM; in assay [3], greater than 100 µM; in assay [4], 44.9 µM; in assay [5], greater than 100 µM; in [6], greater than 100 µM. Also, the TGI in assay [7] was 85.2 µM; in [8], greater than 100 µM; in assay [9], greater than 100 µM; in [10], greater than 100 µM; in assay [11], greater than 100 µM.
With `O=S(=O)(NC(c1ccccc1)(c1cc2ccccc2[nH]1)c1cc2ccccc2n1S(=O)(=O)c1ccccc1)c1ccccc1` (centres undefined), the TGI in assay [1], in assay [2], in assay [3], in assay [4], in assay [5] and in assay [6] was greater than 100 µM throughout. Besides, the TGI in [7], in assay [8], in assay [9], in [10] and in assay [11] was greater than 100 µM throughout.
On to `CSCCCNC(=O)c1csc([C@@H](CSC)NC(=O)CCNC(=O)[C@@H](NC(=O)OCC(Br)(Br)Br)C(C)O)n1` (some centres undefined), for which the TGI in [1], in [2], in assay [3], in assay [4], in assay [5] and in assay [6] was greater than 100 µM throughout. The TGI in assay [7], in assay [8], in assay [9], in assay [10] and in assay [11] was greater than 100 µM throughout.
